Data from publication PMC8286840, “Identifying SARS-CoV-2 antiviral compounds by screening for small molecule inhibitors of Nsp3 papain-like protease” (Biochemical Journal, 2021).
Where a name gives a salt, the structure may show the parent alone. Read-outs that look alike come from different tables or passages of the source. Where a SMILES comes first, the peptide text is derived from it.

Key:
[1] = target: T1, SARS-CoV-2 PLpro (nsp3 1564–1878) (Severe acute respiratory syndrome coronavirus 2, UniProt P0DTD1); assay: biochemical; design: FRET-quenched peptide (Pro3) cleavage by PLpro, 10 min pre-incubation, slope over 20 min, normalised to no-compound control; conditions: low concentration screen, read-out: % of control remaining
[2] = target: T1, SARS-CoV-2 PLpro (nsp3 1564–1878); assay: biochemical; design: FRET-quenched peptide (Pro3) cleavage by PLpro, 10 min pre-incubation, slope over 20 min, normalised to no-compound control; conditions: high concentration screen, read-out: % of control remaining

## CNc1ccc2oc(C[C@H]3O[C@@]4(CC[C@H]3C)O[C@H]([C@H](C)C(=O)c3ccc[nH]3)[C@H](C)C[C@H]4C)nc2c1C(=O)O [Antibiotic A-23187]
[1]; Well no.=3079
  remaining activity at 1.25 µM: 103%
[2]; Well no.=3079
  remaining activity at 3.75 µM: 104%

## CCCCCC[C@H]1C(=O)O[C@H](C)[C@H](NC(=O)c2cccc(NC=O)c2O)C(=O)O[C@@H](C)[C@@H]1OC(=O)CC(C)C [Antimycin A1]
[1]; Well no.=3158
  remaining activity at 1.25 µM: 98.9%
[2]; Well no.=3158
  remaining activity at 3.75 µM: 98.6%

## Cc1cc(=O)n(-c2ccccc2)n1C [Antipyrine]
[1]; Well no.=5024
  remaining activity at 1.25 µM: 96.5%
[2]; Well no.=5024
  remaining activity at 3.75 µM: 100%

## c1ccc(CN(Cc2ncc[nH]2)c2ccccc2)cc1 [Antozoline hydrochloride]
[1]; Well no.=108
  remaining activity at 1.25 µM: 101%
[2]; Well no.=108
  remaining activity at 3.75 µM: 103%

## N#CC1(c2ccc(NC(=O)c3cccnc3NCc3ccncc3)cc2)CCCC1 [Apatinib (YN968D1)]
[1]; Well no.=5156
  remaining activity at 1.25 µM: 101%
[2]; Well no.=5156
  remaining activity at 3.75 µM: 102%

## C[C@@]1(CO)[C@H](O)CC[C@@]2(C)[C@H]1CC[C@H]1C[C@@H]3C[C@@]12CC[C@]3(O)CO [Aphidicolin]
[1]; Well no.=3476
  remaining activity at 1.25 µM: 104%
[2]; Well no.=3476
  remaining activity at 3.75 µM: 101%

## O=c1cc(-c2ccc(O)cc2)oc2cc(O[C@@H]3O[C@H](CO)[C@@H](O)[C@H](O)[C@H]3O)cc(O)c12 [Apigenin-7-glucoside]
[1]; Well no.=3635
  remaining activity at 1.25 µM: 97.8%
[2]; Well no.=3635
  remaining activity at 3.75 µM: 93.3%

## O=c1cc(-c2ccc(O)cc2)oc2cc(O)cc(O)c12 [Apigenin]
[1]; Well no.=299
  remaining activity at 1.25 µM: 93.8%
[1]; Well no.=3234
  remaining activity at 1.25 µM: 99.1%
[1]; Well no.=3909
  remaining activity at 1.25 µM: 101%
[2]; Well no.=299
  remaining activity at 3.75 µM: 93.2%
[2]; Well no.=3234
  remaining activity at 3.75 µM: 94.9%
[2]; Well no.=3909
  remaining activity at 3.75 µM: 96.7%

## COc1ccc(-n2nc(C(N)=O)c3c2C(=O)N(c2ccc(N4CCCCC4=O)cc2)CC3)cc1 [Apixaban]
[1]; Well no.=5331
  remaining activity at 1.25 µM: 99.7%
[2]; Well no.=5331
  remaining activity at 3.75 µM: 100%

## CN1CCc2cccc3c2[C@H]1Cc1ccc(O)c(O)c1-3 [Apomorphine hydrochloride hemihydrate]
[1]; Well no.=349
  remaining activity at 1.25 µM: 99.6%
[2]; Well no.=349
  remaining activity at 3.75 µM: 103%

## O=C1C(=O)N(Cc2ccc(Cl)c(Cl)c2)c2ccccc21 [Apoptosis Activator 2]
[1]; Well no.=5259
  remaining activity at 1.25 µM: 98.8%
[2]; Well no.=5259
  remaining activity at 3.75 µM: 95.7%

## COc1ccc(-c2nc(-c3cc(C(F)(F)F)cc(C(F)(F)F)c3)n(Cc3ccc(C(N)=O)cc3)c2-c2ccc(OC)cc2)cc1 [Apoptozole]
[1]; Well no.=6596
  remaining activity at 1.25 µM: 102%
[1]; Well no.=8536
  remaining activity at 1.25 µM: 98.3%
[2]; Well no.=6596
  remaining activity at 3.75 µM: 92.9%
[2]; Well no.=8536
  remaining activity at 3.75 µM: 90.1%

## CN[C@@H]1[C@@H](O[C@H]2O[C@H](CO)[C@@H](N)[C@H](O)[C@H]2O)O[C@H]2C[C@@H](N)[C@@H](O[C@H]3[C@H](O)[C@@H](O)[C@H](N)C[C@@H]3N)O[C@@H]2[C@@H]1O [Apramycin]
[1]; Well no.=2127
  remaining activity at 1.25 µM: 99.8%
[2]; Well no.=2127
  remaining activity at 3.75 µM: 102%

## CCOc1cc([C@@H](CS(C)(=O)=O)N2C(=O)c3cccc(NC(C)=O)c3C2=O)ccc1OC [Apremilast (CC-10004)]
[1]; Well no.=5218
  remaining activity at 1.25 µM: 97.8%
[2]; Well no.=5218
  remaining activity at 3.75 µM: 99.8%

## C[C@@H](O[C@H]1OCCN(Cc2n[nH]c(=O)[nH]2)[C@H]1c1ccc(F)cc1)c1cc(C(F)(F)F)cc(C(F)(F)F)c1 [Aprepitant]
[1]; Well no.=2244
  remaining activity at 1.25 µM: 98.3%
[1]; Well no.=6703
  remaining activity at 1.25 µM: 102%
[2]; Well no.=2244
  remaining activity at 3.75 µM: 99.9%
[2]; Well no.=6703
  remaining activity at 3.75 µM: 97.7%

## CCCCC/C=C\C/C=C\C/C=C\C/C=C\CCCC(N)=O [Arachidonamide]
[1]; Well no.=4336
  remaining activity at 1.25 µM: 108%
[2]; Well no.=4336
  remaining activity at 3.75 µM: 104%

## CCCCC/C=C\C/C=C\C/C=C\C/C=C\CCCC(=O)O [Arachidonic acid]
[1]; Well no.=4301
  remaining activity at 1.25 µM: 104%
[1]; Well no.=4446
  remaining activity at 1.25 µM: 95.8%
[2]; Well no.=4301
  remaining activity at 3.75 µM: 101%
[2]; Well no.=4446
  remaining activity at 3.75 µM: 97.5%

## CCOC(=O)c1c(CSc2ccccc2)n(C)c2cc(Br)c(O)c(CN(C)C)c12 [Arbidol HCl]
[1]; Well no.=5098
  remaining activity at 1.25 µM: 104%
[2]; Well no.=5098
  remaining activity at 3.75 µM: 107%

## OC[C@H]1O[C@@H](Oc2ccc(O)cc2)[C@H](O)[C@@H](O)[C@@H]1O [Arbutin]
[1]; Well no.=3478
  remaining activity at 1.25 µM: 103%
[2]; Well no.=3478
  remaining activity at 3.75 µM: 101%

## NC(N)=NCCCCN=C(N)N [Arcaine sulfate]
[1]; Well no.=293
  remaining activity at 1.25 µM: 99.2%
[2]; Well no.=293
  remaining activity at 3.75 µM: 96.8%

## COc1cc(C[C@H]2C(=O)OC[C@@H]2Cc2ccc(OC)c(OC)c2)ccc1O [Arctigenin - (3R,4R)-4-[(3,4-Dimethoxyphenyl)methyl]dihydro-3-[(4-hydroxy-3-methoxyphenyl)methyl]-2(3H)-furanone]
[1]; Well no.=2446
  remaining activity at 1.25 µM: 105%
[2]; Well no.=2446
  remaining activity at 3.75 µM: 105%

## O=C1NC(=O)c2c1c1c3ccccc3[nH]c1c1[nH]c3ccccc3c21 [Arcyriaflavin A - 12,13-Dihydro-5H-indolo[2,3-a]pyrrolo[3,4-c]carbazole-5,7(6H)-dione]
[1]; Well no.=2532
  remaining activity at 1.25 µM: 102%
[2]; Well no.=2532
  remaining activity at 3.75 µM: 100%

## O=C1NC(=O)c2c1c1c3ccccc3[nH]c1c1[nH]c3ccccc3c21 [Arcyriaflavin A, Synthetic]
[1]; Well no.=2333
  remaining activity at 1.25 µM: 105%
[2]; Well no.=2333
  remaining activity at 3.75 µM: 102%

## C#CCOC(=O)C1=CCCN(C)C1 [Arecaidine propargyl ester hydrobromide]
[1]; Well no.=254
  remaining activity at 1.25 µM: 97.1%
[2]; Well no.=254
  remaining activity at 3.75 µM: 98.4%

## NC(N)=NCCC[C@H](N)C(=O)NCC(=O)N[C@@H](CC(=O)O)C(=O)N[C@@H](CS)C(=O)O [Arg-Gly-Asp-Cys] (H-RGDC-OH)
[1]; Well no.=8126
  remaining activity at 1.25 µM: 99.2%
[2]; Well no.=8126
  remaining activity at 3.75 µM: 97.3%

## NC(N)=NCCC[C@H](N)C(=O)NCC(=O)N[C@@H](CC(=O)O)C(=O)N[C@@H](CO)C(=O)O [Arg-Gly-Asp-Ser]
[1]; Well no.=7938
  remaining activity at 1.25 µM: 95.5%
[2]; Well no.=7938
  remaining activity at 3.75 µM: 95.3%

## NC(N)=NCCC[C@H](N)C(=O)NCC(=O)N[C@@H](CCC(=O)O)C(=O)N[C@@H](CO)C(=O)O [Arg-Gly-Glu-Ser(TFA)] (H-RGES-OH)
[1]; Well no.=7924
  remaining activity at 1.25 µM: 96.4%
[2]; Well no.=7924
  remaining activity at 3.75 µM: 97.3%

## CC1CNc2c(cccc2S(=O)(=O)N[C@@H](CCCNC(=N)N)C(=O)N2CC[C@@H](C)C[C@@H]2C(=O)O)C1 (stereo partly shown) [Argatroban (monohydrate)]
[1]; Well no.=8454
  remaining activity at 1.25 µM: 103%
[2]; Well no.=8454
  remaining activity at 3.75 µM: 101%

## CC1CNc2c(cccc2S(=O)(=O)N[C@@H](CCCNC(=N)N)C(=O)N2CC[C@@H](C)C[C@@H]2C(=O)O)C1 (stereo partly shown) [Argatroban]
[1]; Well no.=2196
  remaining activity at 1.25 µM: 97.1%
[2]; Well no.=2196
  remaining activity at 3.75 µM: 97.9%

## N[C@](CCCCB(O)O)(CCN1CCCCC1)C(=O)O [Arginase inhibitor 1]
[1]; Well no.=8697
  remaining activity at 1.25 µM: 106%
[2]; Well no.=8697
  remaining activity at 3.75 µM: 105%
